Read-outs that look alike come from different tables or passages of the source.
What was measured:
Bax = Bax expression level (ELISA) in MCF-7 cells; assay type: cell-based, human; settings: 24 h incubation
Procedure: The levels of two members of Bcl-2 family proteins, the anti-apoptotic Bcl-2 protein, and the counteracting pro-apoptotic Bax protein, as well as the level of active caspase-3 (a key executioner protease) in MDA-MB-231 and MCF-7 cells have been assessed after incubation with QBS 11c and 13b for 24 h.
All adopted procedures for the conducted in vitro biological assays were performed as described earlier; CA (stopped-flow), cytotoxicity (MTT [37, 38]), and assessment of apoptotic markers assays, as well as induction of hypoxia with cobalt chloride, and were mentioned in the Supporting Materials. […]
monolay er. Cell monolay ers were treated in quadrates with vehicle (DMSO, 0.1% v/v), test samples or Adriamycin as positive control for an exposure time of 72 h. At the end of exposure, MTT solution in PBS (5 mg/ml) was then added to all well including no cell blank and left to incubate for 90 min. The formation of formazan crystals were visually confirmed using phase contract microscopy. DMSO (100 µl/well) was added to dissolve the formazan crystals with shaking for 10 min after which the absorbance was read at 590 nm against no cell blanks on a FLuo Star Optima microplate reader (BMG technologies, Germany). Cell proliferation was calculated comparing the OD values of the DMSO control wells and those of the samples represented as % proliferation to the control. Dose-response experiment was performed on samples producing > or =50% loss of cell proliferation using five serial 2-fold dilutions (50, 25, 12.5, 6.25 and 3.125 µM) of the sample. IC50 values (concentration of sample causing 50% loss of cell proliferation of the vehicle control) were calculated using non-linear regression curve fitting of the dose response plots on GraphPad Prism V.6.0 software.
3. Assessment of Apo ptotic Markers Levels
The levels of the pro-apoptotic markers (Bax and active caspase-3) as well as the anti-apoptotic marker Bcl-2 were determined using ELISA kits; Human Bax ELISA Kit (EIA-4487) DRG® Instruments, Bcl-2 ELISA Kit (99–0042), Zymed® Laboratories, Invitrogen Immunodetection, and Human Caspase-3 (active) ELISA Kit (KHO1091) Invitrogen®, per the manufacturer’s instructions. Breast cancer MDA-MB-231 and MCF-7 cells were cultured as a monolayer in T-25 flasks and were seeded to attain 30% confluency prior to treatment. Cells were then treated separately with MBFS 11b at its IC50 concentration for 24 h. […]
captured protein, forming a “sandwich” of specific antibodies around the desired protein in the cell lysate. […] The HRP domain reacted with the added TMB substrate to form a colored product that measured at 450 nm by a plate reader ChroMate-4300 after the reaction was terminated via the addition of stop solution. […]

MDA-MB-231 = experiment: 72 h MTT anti-proliferative assay under hypoxic conditions, MDA-MB-231; assay type: cell-based; settings: Homo sapiens, mean ± S.D. of three experiments
Excerpt: 1. Carbonic anhydrase inhibition assay
The enzymes are recombinant proteins prepared in our lab.
parameters and inhibition constants.
2. Anti-proliferative action toward human breast cell lines

hCA IX = hCA IX (Homo sapiens, UniProt Q16790); experiment: stopped flow carbon dioxide hydrase assay, hCA IX; settings: for Selectivity ratio I/IX: hCA IX over hCA I; for Selectivity ratio II/IX: hCA IX over hCA II

Row | Compound | BAX (Bax) | BAX, folds of control (Bax) | IC50 (MDA-MB-231) | Ki (hCA IX) | Selectivity ratio I/IX (hCA IX) | Selectivity ratio II/IX (hCA IX) | Ki (hCA IX; read-out: KI CA IX, stopped flow technique, mean from 3 different assays)
1 | COc1ccc2nccc(Nc3ccc(S(N)(=O)=O)cc3)c2c1 [13b, 4-((6-methoxyquinolin-4-yl)amino)benzenesulfonamide] | 443.9 ± 10.2 Pg/mg of Total Protein | 4.64 folds of control | 2240 ± 100 nM | 5.5 nM | 16.7 | 10.6 | 
2 | NS(=O)(=O)c1cccc(Nc2ccnc3ccc(Cl)cc23)c1 [11c, 3-((6-chloroquinolin-4-yl)amino)benzenesulfonamide] | 512.9 ± 11.7 Pg/mg of Total Protein | 5.36 folds of control | 1030 ± 50 nM |  | 52.7 | 18.4 | 8.4 nM

— paper PMC8541628, “Development of Novel Quinoline-Based Sulfonamides as Selective Cancer-Associated Carbonic Anhydrase Isoform IX Inhibitors” (International Journal of Molecular Sciences, 2021)
